In paper PMC12675575, “A BRET biosensor for measuring uncompetitive engagement of PRMT5 complexes in cells” (Nature Communications, 2025):
Where “and” joins values, the source holds several entries; their conditions need not be identical. Equal entries are not always repeated. Where two headings read alike, the source gives them in different places.

Columns and labels:
NL-PRMT5 with WDR77 = target: T1, NL-PRMT5 with WDR77 (Homo sapiens, UniProt O14744); experiment: MRTX1719 kinetic washout (residence time) NanoBRET experiment in HEK293 cells; format: cell-based; details: 100uM MTA
T1 construct: host or cells: HEK293
T1 sequence (O14744 whole entry): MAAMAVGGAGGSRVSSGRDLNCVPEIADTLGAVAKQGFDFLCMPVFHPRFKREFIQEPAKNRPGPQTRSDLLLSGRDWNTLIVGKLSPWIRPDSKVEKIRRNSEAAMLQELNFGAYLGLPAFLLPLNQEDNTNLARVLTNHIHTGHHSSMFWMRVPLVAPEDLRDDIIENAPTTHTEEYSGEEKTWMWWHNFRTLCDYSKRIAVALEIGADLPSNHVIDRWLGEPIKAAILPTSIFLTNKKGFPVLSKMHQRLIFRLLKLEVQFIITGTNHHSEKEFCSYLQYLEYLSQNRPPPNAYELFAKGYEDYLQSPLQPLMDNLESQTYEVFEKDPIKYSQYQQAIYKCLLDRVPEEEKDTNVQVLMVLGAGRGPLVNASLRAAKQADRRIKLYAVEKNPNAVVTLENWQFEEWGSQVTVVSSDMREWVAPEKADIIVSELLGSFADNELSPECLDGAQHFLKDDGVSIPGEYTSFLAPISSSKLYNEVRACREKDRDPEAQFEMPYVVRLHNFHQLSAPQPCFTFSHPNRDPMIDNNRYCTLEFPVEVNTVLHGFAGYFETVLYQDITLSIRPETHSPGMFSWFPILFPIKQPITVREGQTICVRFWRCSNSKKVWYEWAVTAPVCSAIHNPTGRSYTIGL
T1 sequence (Q9BQA1 whole entry partner): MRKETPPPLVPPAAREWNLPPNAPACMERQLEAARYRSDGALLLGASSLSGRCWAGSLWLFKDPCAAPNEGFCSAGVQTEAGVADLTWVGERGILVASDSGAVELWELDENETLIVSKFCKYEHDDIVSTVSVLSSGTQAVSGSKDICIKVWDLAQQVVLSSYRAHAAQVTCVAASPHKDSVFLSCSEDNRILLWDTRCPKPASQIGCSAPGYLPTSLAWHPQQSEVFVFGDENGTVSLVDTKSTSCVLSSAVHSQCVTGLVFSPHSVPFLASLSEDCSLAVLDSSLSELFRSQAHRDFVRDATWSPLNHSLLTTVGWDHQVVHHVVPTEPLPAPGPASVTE
Method: On the next day, cells were resuspended in a 15 mL falcon tube and adjusted to 2 × 10^5 cells/mL in assay medium (OptiMEM with 1% FBS). […] After incubation, cells were centrifuged at 300 × g for 5 min, medium was aspirated and cells were washed with pre-warmed assay medium, centrifuged again and adjusted to 2 × 10^5 cells/mL. For the full occupancy control, MTA and compound concentrations were maintained. 34 μL of cells were added per well in a seeded into 96-well non-binding surface-treated plates (Corning), followed by addition of 36 μL of Complete 2x Substrate (prepared by combining Nano-Glo Substrate and Extracellular NanoLuc Inhibitor in Opti-MEM, according to the manufacturer’s protocol (Promega)). Then, 2 μL of ETP CBH-002 at a final concentration of 30 nM were added before immediate readout at the PheraSTAR FSX for 6 h. Readout and analysis were conducted as described earlier.

NLuc-PRMT5 = NLuc-PRMT5 (Homo sapiens, UniProt O14744); experiment: BRET probe sensitivity to exogenous MTA in live HEK293 cells expressing NLuc-PRMT5; format: cell-based; set-up: host or cells: HEK293 (live cells; digitonin lysate for the SAM titration); details: for remaining activity at […] / remaining activity at 1000 µM: Log([MTA]), room temperature, read-out: Normalized BRET probe signal; for remaining activity at 1000 µM: uM 3.00
Sequence of NLuc-PRMT5 (O14744 whole entry): as the sequence (O14744 whole entry) above
Sequence of NLuc-PRMT5 (Q9BQA1 whole entry partner): as the sequence (Q9BQA1 whole entry partner) above
Method: To measure BRET probe sensitivity to both MAT2A inhibition and exogenous MTA in live cells, HEK293 cells were pre-treated with 30 nM CBH-002 and incubated at 37 °C and 5% CO2 for 2 h. For MAT2A inhibition, a 20 µM, 3-fold, 11 pt titration series of Compound A (Selleckchem) was added to wells. Cells were incubated either at 37 °C (Fig. 3D) or room temperature (Fig. S3D). Data were normalized using Eq. (2), where BRETMIN = instrument background (no CBH-002), and BRETMAX = 2 h vehicle treatment, and fit curves were generated using Eq. (1). For MTA sensitivity cells were treated with a 1 mM, 11 pt, 2-fold series of MTA (Sigma) and cells were incubated at room temperature for 2 h, reading in 15 min intervals. Data were normalized using Eq. (2), where BRETMIN = instrument background (no CBH-002), and BRETMAX = 2 h + vehicle treatment. Data were fit with Eq. (1).

CSC[C@H]1O[C@@H](n2cnc3c(N)ncnc32)[C@H](O)[C@@H]1O [MTA, methylthioadenosine]
BRET, Figure S5I (NL-PRMT5 with WDR77; time 0 min): 0.1105 and 0.1241 and 0.1192 and 0.1078 and 0.1088 and 0.1195 and 0.1138 and 0.1151 | BRET, Figure S5I (NL-PRMT5 with WDR77; time 6 min): 0.3119 and 0.3036 and 0.3616 and 0.2837 and 0.2843 and 0.315 and 0.3325 and 0.3197 | BRET, Figure S5I (NL-PRMT5 with WDR77; time 12 min): 0.5293 and 0.4857 and 0.5913 and 0.4586 and 0.456 and 0.5044 and 0.5405 and 0.5123 | BRET, Figure S5I (NL-PRMT5 with WDR77; time 18 min): 0.7285 and 0.6611 and 0.7995 and 0.6306 and 0.6158 and 0.6735 and 0.7234 and 0.6889 | BRET, Figure S5I (NL-PRMT5 with WDR77; time 24 min): 0.8959 and 0.8098 and 0.9637 and 0.7786 and 0.7595 and 0.8227 and 0.869 and 0.8404 | BRET, Figure S5I (NL-PRMT5 with WDR77; time 30 min): 1.03 and 0.937 and 1.09 and 0.9086 and 0.8803 and 0.9486 and 0.9887 and 0.9612 | BRET, Figure S5I (NL-PRMT5 with WDR77; time 36 min): 1.134 and 1.042 and 1.191 and 1.015 and 0.9796 and 1.049 and 1.086 and 1.061 | BRET, Figure S5I (NL-PRMT5 with WDR77; time 42 min): 1.201 and 1.125 and 1.257 and 1.0947 and 1.057 and 1.127 and 1.168 and 1.1428 | BRET, Figure S5I (NL-PRMT5 with WDR77; time 48 min): 1.264 and 1.1938 and 1.301 and 1.164 and 1.1261 and 1.183 and 1.221 and 1.192 | BRET, Figure S5I (NL-PRMT5 with WDR77; time 54 min): 1.305 and 1.245 and 1.342 and 1.215 and 1.178 and 1.2272 and 1.267 and 1.255 | BRET, Figure S5I (NL-PRMT5 with WDR77; time 60 min): 1.34 and 1.2815 and 1.366 and 1.252 and 1.226 and 1.27 and 1.304 and 1.278 | BRET, Figure S5I (NL-PRMT5 with WDR77; time 66 min): 1.37 and 1.322 (2×) and 1.406 and 1.285 and 1.248 and 1.298 and 1.329 | BRET, Figure S5I (NL-PRMT5 with WDR77; time 72 min): 1.398 and 1.341 and 1.428 and 1.319 | remaining activity at […] (NLuc-PRMT5; HEK293, 0.5 h, uM 0.29, Time (min) 30): 98.1% | remaining activity at […] (NLuc-PRMT5; HEK293, 0.5 h, uM 0.59, Time (min) 30): 97.9% | remaining activity at […] (NLuc-PRMT5; HEK293, 0.5 h, uM 0.89, Time (min) 30): 99.1% | remaining activity at […] (NLuc-PRMT5; HEK293, 0.5 h, uM 1.19, Time (min) 30): 97.4% | remaining activity at […] (NLuc-PRMT5; HEK293, 0.5 h, uM 1.49, Time (min) 30): 95.2% | remaining activity at […] (NLuc-PRMT5; HEK293, 0.5 h, uM 1.80, Time (min) 30): 93% | remaining activity at […] (NLuc-PRMT5; HEK293, 0.5 h, uM 2.10, Time (min) 30): 90.2% | remaining activity at […] (NLuc-PRMT5; HEK293, 0.5 h, uM 2.40, Time (min) 30): 87.8% | remaining activity at […] (NLuc-PRMT5; HEK293, 0.5 h, uM 2.70, Time (min) 30): 86.4% | remaining activity at 1000 µM (NLuc-PRMT5; HEK293, 0.5 h, Time (min) 30): 85.4% | remaining activity at […] (NLuc-PRMT5; HEK293, 1 h, uM 0.29, Time (min) 60): 99.2% | remaining activity at […] (NLuc-PRMT5; HEK293, 1 h, uM 0.59, Time (min) 60): 99.7% | remaining activity at […] (NLuc-PRMT5; HEK293, 1 h, uM 0.89, Time (min) 60): 98.1% | remaining activity at […] (NLuc-PRMT5; HEK293, 1 h, uM 1.19, Time (min) 60): 96.8% | remaining activity at […] (NLuc-PRMT5; HEK293, 1 h, uM 1.49, Time (min) 60): 94.8% | remaining activity at […] (NLuc-PRMT5; HEK293, 1 h, uM 1.80, Time (min) 60): 91.1% | remaining activity at […] (NLuc-PRMT5; HEK293, 1 h, uM 2.10, Time (min) 60): 87.7% | remaining activity at […] (NLuc-PRMT5; HEK293, 1 h, uM 2.40, Time (min) 60): 84.6% | remaining activity at […] (NLuc-PRMT5; HEK293, 1 h, uM 2.70, Time (min) 60): 79.9% | remaining activity at 1000 µM (NLuc-PRMT5; HEK293, 1 h, Time (min) 60): 78.1% | remaining activity at […] (NLuc-PRMT5; HEK293, 2 h, uM 0.29, Time (min) 120): 98.3% | remaining activity at […] (NLuc-PRMT5; HEK293, 2 h, uM 0.59, Time (min) 120): 98.5% | remaining activity at […] (NLuc-PRMT5; HEK293, 2 h, uM 0.89, Time (min) 120): 97.2% | remaining activity at […] (NLuc-PRMT5; HEK293, 2 h, uM 1.19, Time (min) 120): 96% | remaining activity at […] (NLuc-PRMT5; HEK293, 2 h, uM 1.49, Time (min) 120): 93.7% | remaining activity at […] (NLuc-PRMT5; HEK293, 2 h, uM 1.80, Time (min) 120): 90% | remaining activity at […] (NLuc-PRMT5; HEK293, 2 h, uM 2.10, Time (min) 120): 85.1% | remaining activity at […] (NLuc-PRMT5; HEK293, 2 h, uM 2.40, Time (min) 120): 81.7% | remaining activity at […] (NLuc-PRMT5; HEK293, 2 h, uM 2.70, Time (min) 120): 75.7% | remaining activity at 1000 µM (NLuc-PRMT5; HEK293, 2 h, Time (min) 120): 72.8% | Time to plateau of BRET inhibition (NLuc-PRMT5; live HEK293, room temperature): ~ 2 h
